Data reported in patent publication US20040142961A1, “Utilization of substituted imidazo[1,2-a]-pyridine compounds in pharmaceutical formulations” (priority 2001, published 2004).

Biological target: T1, nitric oxide synthase (Rattus norvegicus, UniProt P29476)
T1 construct: the supernatant was then decanted and frozen in portions; from tissue; host or cells: rat cerebellum, homogenate supernatant after 20,000 g
Assay: HTS NO synthase assay
Type: biochemical
Conditions: 10 μM test compound; enzyme from rat cerebellum; [3H]arginine substrate; read-out: Inhibition of nitric oxide synthase (10 μM) in per cent
Experimental: This assay allows the determination of the percentage inhibition of NO synthase by a compound of formula I employed according to the invention by measuring the NO synthase activity under the action of the compound. In this procedure, NO synthase is mixed together with radioactively labelled arginine and the particular compound of formula I under suitable conditions. After interruption of the NO formation reaction at a given point in time, the amount of unreacted arginine is determined directly or indirectly. Comparison of this amount with the amount of arginine remaining from the mixture of NO synthase and arginine free of the test compound of formula I and under otherwise identical conditions gives the percentage inhibition of NO synthase by the test compound. This assay can be carried out as follows:
(a) incubation of NO synthase with labelled arginine as the substrate in a reaction vessel,
(b) separation of the labelled arginine from labelled citrulline formed as the product of the enzymatic reaction at a point in time at which the concentration of citrulline is increasing, and
(c) measurement of the amount of arginine separated in each case.
The separation is carried out through a filter plate membrane.
In this HTS NO synthase assay, radioactive arginine is used as the substrate. The assay volume can be chosen in the range between 25 μl and 250 μl, depending on the nature of the microtiter plate (MTP). Cofactors and coenzymes are added, depending on the enzyme source used. The incubation of the batches in this microtiter plate (assay MTP) according to step (a) is carried out at room temperature for between 5 and 60 minutes, depending on the enzyme activity (units) used. At the end of the incubation (step (a)), the plate is placed in a cell harvester equipped with an MTP which has a cation exchanger membrane as the filter base (filter MTP). All the batches of the assay MTP are transferred into this filter MTP and filtered with suction over a cation exchanger filter plate, i.e., a filter paper loaded with phosphate groups. The filter MTP is then washed with buffer or water. Using this procedure, the arginine substrate which remains is bound to the cation exchanger, while the radioactive citrulline formed enzymatically is washed out quantitatively. After drying of the filter MTP and addition of scintillation liquid, the bound arginine can be counted on a scintillation counter. An NO synthase reaction which has not been inhibited is reflected in a low radioactivity. An inhibited enzyme reaction means that the radioactive arginine has not been reacted. That is to say, a high radioactivity is found on the filter. […]
The plate was then dried for 1 hour at 60° C. in a drying cabinet. […] After a waiting time of 1 hour, the plate was measured on a β-counter.

| inhibition at 10 µM [%] | SMILES |
| --- | --- |
| 39 | COc1ccc(-c2cn3ccc(C)cc3n2)cc1 [Example 1, 2-(4-Methoxy-phenyl)-7-methyl-imidazo[1,2-a]pyridine] |
| 68 | Cc1ccn2cc(C)nc2c1 [Example 2, 2,7-Dimethyl-imidazo[1,2-a]pyridine] |
| 53 | Cc1ccn2ccnc2c1 [Example 3, 7-Methyl-imidazo[1,2-a]pyridine] |
| 89 | Cc1ccn2cc(C(C)(C)C)nc2c1 [Example 4, 2-tert-Butyl-7-methyl-imidazo[1,2-a]pyridine] |
